Experimental data published in patent US11407757B2, “Heterocycle compounds as Tyro3, Axl and MerTK (TAM) family of receptor tyrosine kinase inhibitors” (Development Center for Biotechnology, priority 2017, dated 2022).

These compounds were tested against Axl kinase (Homo sapiens (Human), UniProt P30530) (assay: Axl kinase assay (AlphaScreen)). Conditions: activity level class.
Type: biochemical

Chain of Axl kinase (P30530 26-894): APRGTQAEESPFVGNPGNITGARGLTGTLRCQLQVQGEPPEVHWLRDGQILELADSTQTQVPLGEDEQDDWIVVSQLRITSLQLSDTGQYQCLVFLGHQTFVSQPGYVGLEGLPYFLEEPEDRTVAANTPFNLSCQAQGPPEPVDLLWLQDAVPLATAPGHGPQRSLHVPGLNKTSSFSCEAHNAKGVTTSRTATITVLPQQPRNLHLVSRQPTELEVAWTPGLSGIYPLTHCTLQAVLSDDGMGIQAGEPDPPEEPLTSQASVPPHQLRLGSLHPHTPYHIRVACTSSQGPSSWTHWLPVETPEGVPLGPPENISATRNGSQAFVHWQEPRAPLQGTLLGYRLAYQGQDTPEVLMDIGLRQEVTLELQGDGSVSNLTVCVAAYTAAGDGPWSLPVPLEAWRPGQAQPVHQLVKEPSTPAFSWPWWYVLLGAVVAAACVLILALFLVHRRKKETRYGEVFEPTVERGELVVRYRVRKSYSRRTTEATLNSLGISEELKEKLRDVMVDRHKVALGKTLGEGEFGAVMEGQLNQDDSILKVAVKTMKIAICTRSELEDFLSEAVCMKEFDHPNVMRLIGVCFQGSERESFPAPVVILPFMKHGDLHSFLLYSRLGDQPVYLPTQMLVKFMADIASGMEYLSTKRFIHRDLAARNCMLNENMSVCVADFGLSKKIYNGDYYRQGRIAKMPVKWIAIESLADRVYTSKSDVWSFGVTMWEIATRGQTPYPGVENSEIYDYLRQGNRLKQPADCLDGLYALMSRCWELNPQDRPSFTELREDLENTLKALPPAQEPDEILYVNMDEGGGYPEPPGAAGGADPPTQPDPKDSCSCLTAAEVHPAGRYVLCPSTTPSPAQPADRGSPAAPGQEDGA

Row | IC50 [µM] | SMILES
1 | < 0.03 | COc1nc(Nc2ccc(CN3CCC(C)CC3)cc2)nc2[nH]cc(-c3ccc(O)cc3)c12 [Compound 28, 4-(4-methoxy-2-((4-((4-methylpiperidin-1-yl)methyl)phenyl)amino)-7H-pyrrolo[2,3-d]pyrimidin-5-yl)phenol]
2 | < 0.03 | COCCOc1nc(Nc2ccc(CN3CCN(C)CC3)cc2)nc2[nH]cc(-c3ccc4nc(C)oc4c3)c12 [Compound 64, 4-(2-methoxyethoxy)-5-(2-methylbenzo[d]oxazol-6-yl)-N-(4-((4-methylpiperazin-1-yl)methyl)phenyl)-7H-pyrrolo[2,3-d] pyrimidin-2-amine]
3 | < 0.03 | CN1CCN(Cc2ccc(Nc3nc(OCC4CCCO4)c4c(-c5ccc(F)cc5F)c[nH]c4n3)cc2)CC1 (centres unmarked) [Compound 52, 5-(2,4-difluorophenyl)-N-(4-((4-methylpiperazin-1-yl)methyl)phenyl)-4-((tetrahydrofuran-2-yl)methoxy)-7H-pyrrolo[2,3-d] pyrimidin-2-amine]
4 | < 0.03 | COCCOc1nc(Nc2ccc(CN3CCN(C)CC3)cc2)nc2[nH]cc(-c3ccc(OCc4ccc(C)cn4)cc3F)c12 [Compound 105, 5-(2-fluoro-4-((5-methylpyridin-2-yl)methoxy)phenyl)-4-(2-methoxyethoxy)-N-(4-((4-methylpiperazin-1-yl)methyl)phenyl)-7H-pyrrolo[2,3-d]pyrimidin-2-amine]
5 | < 0.03 | COCCOc1nc(Nc2ccc(CN3CCC(C)CC3)cc2)nc2[nH]cc(-c3ccc(NS(=O)(=O)c4cc(F)ccc4F)cc3)c12 [Compound 3, 2,5-difluoro-N-(4-(4-(2-methoxyethoxy)-2-((4-((4-methylpiperidin-1-yl)methyl)phenyl)amino)-7H-pyrrolo[2,3-d]pyrimidin-5-yl)phenyl)benzene-sulfonamide]
6 | < 0.03 | COc1nc(Nc2ccc(CN3CCN(C)CC3)cc2)nc2[nH]cc(-c3ccc(F)cc3)c12 [Compound 38, 5-(4-fluorophenyl)-4-methoxy-N-(4-((4-methylpiperazin-1-yl)methyl)phenyl)-7H-pyrrolo[2,3-d]pyrimidin-2-amine]
7 | < 0.03 | COCCOc1nc(Nc2ccc(CN3CCN(C)CC3)cc2)nc2[nH]cc(-c3ccc(S(=O)(=O)N(C)C)cc3F)c12 [Compound 91, 3-fluoro-4-(4-(2-methoxyethoxy)-2-((4-((4-methylpiperazin-1-yl)methyl)phenyl)amino)-7H-pyrrolo[2,3-d]pyrimidin-5-yl)-N,N-dimethylbenzene-sulfonamide]
8 | < 0.03 | CCN1CCN(Cc2ccc(Nc3nc(OCCOC)c4c(-c5ccc(OCc6ccccn6)cc5F)c[nH]c4n3)cc2)CC1 [Compound 19, N-(4-((4-ethylpiperazin-1-yl)methyl)phenyl)-5-(2-fluoro-4-(pyridin-2-ylmethoxy)phenyl)-4-(2-methoxyethoxy)-7H-pyrrolo[2,3-d]pyrimidin-2-amine]
9 | < 0.03 | COCC(C)Oc1nc(Nc2ccc(CN3CCN(C)CC3)cc2)nc2[nH]cc(-c3ccc(F)cc3F)c12 (centres unmarked) [Compound 63, 5-(2,4-difluorophenyl)-4-((1-methoxypropan-2-yl)oxy)-N-(4-((4-methylpiperazin-1-yl)methyl)phenyl)-7H-pyrrolo[2,3-d]pyrimidin-2-amine]
10 | < 0.03 | COCCOc1nc(Nc2ccc(CN3CCN(C)CC3)cc2)nc2[nH]cc(-c3ccc(OCc4ccccn4)cc3)c12 [Compound 110, 4-(2-methoxyethoxy)-N-(4-((4-methylpiperazin-1-yl)methyl)phenyl)-5-(4-(pyridin-2-ylmethoxy)phenyl)-7H-pyrrolo[2,3-d]pyrimidin-2-amine]
11 | < 0.03 | COCCOc1nc(Nc2ccc(CN3CCN(C)CC3)cc2)nc2[nH]cc(-c3ccc(OCc4cccc(C)n4)cc3F)c12 [Compound 103, 5-(2-fluoro-4-((6-methylpyridin-2-yl)methoxy)phenyl)-4-(2-methoxyethoxy)-N-(4-((4-methylpiperazin-1-yl)methyl)phenyl)-7H-pyrrolo[2,3-d]pyrimidin-2-amine]
12 | < 0.03 | COCCOc1nc(Nc2ccc(CN3CCN(C)CC3)cc2)nc2[nH]cc(-c3ccc(OCc4cccc(F)n4)cc3F)c12 [Compound 104, 5-(2-fluoro-4-((6-fluoropyridin-2-yl)methoxy)phenyl)-4-(2-methoxyethoxy)-N-(4-((4-methylpiperazin-1-yl)methyl)phenyl)-7H-pyrrolo[2,3-d]pyrimidin-2-amine]
13 | < 0.03 | COc1nc(Nc2ccc(CN3CCC(C)CC3)cc2)nc2[nH]cc(-c3ccc(S(=O)(=O)N(C)C)cc3)c12 [Compound 5, 4-(4-methoxy-2-((4-((4-methylpiperidin-1-yl)methyl)phenyl)amino)-7H-pyrrolo[2,3-d]pyrimidin-5-yl)-N,N-dimethylbenzene-sulfonamide]
14 | < 0.03 | COCCOc1nc(Nc2ccc(CN3CCN(C)CC3)cc2)nc2[nH]cc(-c3ccc(OCc4cc(C)ccn4)cc3F)c12 [Compound 9, 5-(2-fluoro-4-((4-methylpyridin-2-yl)methoxy)phenyl)-4-(2-methoxyethoxy)-N-(4-((4-methylpiperazin-1-yl)methyl)phenyl)-7H-pyrrolo[2,3-d]pyrimidin-2-amine]
15 | < 0.03 | CCOc1nc(Nc2ccc(CN3CCN(C)CC3)cc2)nc2[nH]cc(-c3ccc(F)cc3F)c12 [Compound 59, 5-(2,4-difluorophenyl)-4-ethoxy-N-(4-((4-methylpiperazin-1-yl)methyl)phenyl)-7H-pyrrolo[2,3-d] pyrimidin-2-amine]
16 | < 0.03 | COCCOc1nc(Nc2ccc(CN3CCC(C)CC3)cc2)nc2[nH]cc(-c3ccc(OCc4ncccc4C)cc3F)c12 [Compound 111, 5-(2-fluoro-4-((3-methylpyridin-2-yl)methoxy)phenyl)-4-(2-methoxyethoxy)-N-(4-((4-methylpiperidin-1-yl)methyl)phenyl)-7H-pyrrolo[2,3-d]pyrimidin-2-amine]
17 | < 0.03 | COCCOc1nc(Nc2ccc(CN3CCN(C)CC3)cc2)nc2[nH]cc(-c3ccc(NS(=O)(=O)c4cc(F)ccc4F)cc3)c12 [Compound 1, 2,5-difluoro-N-(4-(4-(2-methoxyethoxy)-2-((4-((4-methylpiperazin-1-yl)methyl)phenyl)amino)-7H-pyrrolo[2,3-d]pyrimidin-5-yl)phenyl)benzene-sulfonamide]
18 | < 0.03 | COCCOc1nc(Nc2ccc(CN3CCN(C)CC3)cc2)nc2[nH]cc(-c3ccc(F)cc3F)c12 [Compound 53, 5-(2,4-difluorophenyl)-4-(2-methoxyethoxy)-N-(4-((4-methylpiperazin-1-yl)methyl)phenyl)-7H-pyrrolo[2,3-d] pyrimidin-2-amine]

What follows are compounds tested against Mer kinase (Homo sapiens (Human), UniProt Q12866) (assay: Mer kinase assay (AlphaScreen)). Conditions: read-out: Mer kinase IC50; activity level class.
Chain of Mer kinase (Q12866 21-999): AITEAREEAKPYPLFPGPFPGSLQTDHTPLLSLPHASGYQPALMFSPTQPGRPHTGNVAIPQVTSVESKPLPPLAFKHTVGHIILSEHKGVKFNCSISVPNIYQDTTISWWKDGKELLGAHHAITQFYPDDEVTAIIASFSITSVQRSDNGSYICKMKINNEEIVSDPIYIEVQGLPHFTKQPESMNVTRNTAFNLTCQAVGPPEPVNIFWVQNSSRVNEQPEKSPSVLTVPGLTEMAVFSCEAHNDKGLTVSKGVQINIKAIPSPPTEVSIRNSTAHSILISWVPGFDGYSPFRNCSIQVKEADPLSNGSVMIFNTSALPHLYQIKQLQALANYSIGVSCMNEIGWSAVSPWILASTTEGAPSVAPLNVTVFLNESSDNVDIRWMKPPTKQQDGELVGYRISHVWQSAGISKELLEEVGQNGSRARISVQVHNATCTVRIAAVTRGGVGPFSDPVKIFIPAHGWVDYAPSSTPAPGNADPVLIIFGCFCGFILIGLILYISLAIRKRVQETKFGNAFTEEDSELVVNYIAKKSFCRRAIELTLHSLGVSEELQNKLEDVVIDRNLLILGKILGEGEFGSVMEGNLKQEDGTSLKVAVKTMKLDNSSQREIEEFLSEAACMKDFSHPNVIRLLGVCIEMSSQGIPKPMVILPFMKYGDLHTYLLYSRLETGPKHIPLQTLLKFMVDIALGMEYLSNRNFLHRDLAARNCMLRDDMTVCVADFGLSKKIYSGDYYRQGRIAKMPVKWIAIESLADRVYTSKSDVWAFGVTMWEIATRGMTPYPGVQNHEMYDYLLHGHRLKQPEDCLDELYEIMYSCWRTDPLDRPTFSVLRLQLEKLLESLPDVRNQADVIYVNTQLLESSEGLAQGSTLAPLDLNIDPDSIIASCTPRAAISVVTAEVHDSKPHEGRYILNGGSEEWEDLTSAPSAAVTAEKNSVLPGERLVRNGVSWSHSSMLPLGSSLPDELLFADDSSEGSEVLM

Row | IC50 [µM] | SMILES
19 | > 1 | CCN(CC)S(=O)(=O)c1ccc(-c2c[nH]c3nc(Nc4ccc(CN5CCN(C)CC5)cc4)nc(OCCOC)c23)cc1 [Compound 86, N,N-diethyl-4-(4-(2-methoxyethoxy)-2-((4-((4-methylpiperazin-1-yl)methyl)phenyl)amino)-7H-pyrrolo[2,3-d]pyrimidin-5-yl)benzenesulfonamide]
20 | > 1 | COc1nc(Nc2ccc(CN3CCOCC3)cc2)nc2[nH]cc(-c3ccc(S(=O)(=O)N(C)C)cc3)c12 [Compound 7, 4-(4-methoxy-2-((4-(morpholinomethyl)phenyl)amino)-7H-pyrrolo[2,3-d]pyrimidin-5-yl)-N,N-dimethylbenzene-sulfonamide]
